What is called IC50 is the concentration needed to halve the response being measured.

We go through one compound from BindingDB's records for doi:10.1016/j.ejmech.2019.04.066 (Shanghai Ocean University, 2019).

The nature of the assay: Inhibition of ICAM-1 in human A549 cells after 1 hr in presence of IL-1beta.

Take `C[C@@H]1C(=O)O[C@H]2[C@H]1CC[C@@]1(C)C[C@@H](Br)C(=O)[C@@H](C)[C@H]21`: the IC50 worked out at 5.9 µM.
